Patent publication US20020111282A1, “Antimicrobial compositions containing quaternary ammonium compounds, silanes and other disinfectants with furanones” (priority 2000, published 2002)

Assays:
Alternaria alternata = experiment: Zone of inhibition assay on TLC plates overlaid with agar containing fungal spores; assay type: cell-based; conditions: 10 μl spotted
Procedure: (§1) Fungi used: Alternaria alternata, Aureobasidium pullulans, Cladosporium cladosporioides, Penicillium digitatum Method: Base formulas for A, B, C and D were prepared as described in Table 1 below. Subsequently, test solutions were prepared either by: (1) taking a furanone or a base formula alone; or (2) by adding small amounts of suitably solubilized furanone (i.e., normally using ethanol) to a base formula so as to deliver a series of furanone concentrations in the test solutions (i.e., 10 ug/ml, 5 ug/ml, 1 ug/ml, 500 ng/ml, 100 ng/ml and 10 ng/ml). […] The various test solutions are set out at the left-hand margin of Tables 2A to 2D and can be described as follows: Once the test solutions were prepared, 10 μl of each test solution was spotted onto TLC plates. The plates were overlaid with agar containing fungal spores. The TLC plates were incubated in a high humidity environment until growth could be observed visually. At inhibitory furanone concentrations, a zone of inhibition where no fungal growth was observed formed above the test solution spot. Lower furanone concentrations resulting in a zone of inhibition correspond to higher test solution efficacy.

Aureobasidium pullulans = experiment: as above; assay type: cell-based; conditions: 10 μl spotted
Procedure: as §1

[1] = system: Cladosporium cladosporioides; experiment: as above; assay type: cell-based; conditions: 10 μl spotted
Procedure: as §1

Penicillium digitatum = experiment: as above; assay type: cell-based; conditions: 10 μl spotted
Procedure: as §1

Solubility in water = assay type: physicochemical
[2] = 10 ng/ml furanone in test solution
[3] = 100 ng/ml furanone in test solution
[4] = 500 ng/ml furanone in test solution
[5] = 5 μg/ml furanone in test solution
[6] = 10 μg/ml furanone in test solution
[7] = 1 μg/ml furanone in test solution

Q: For O=C1C=C(Br)/C(=C/Br)O1 [Furanone 30], which “Zone of Inhibition with 10 ng/ml of Furanone (mm)” value (Alternaria alternata; [2]) is on record?
A: Its value is 0 mm.

Q: And the “Zone of Inhibition with 100 ng/ml of Furanone (mm)” value (Alternaria alternata; [3])?
A: Its value is 2-3 mm.

Q: And the “Zone of Inhibition with 500 ng/ml of Furanone (mm)” value (Alternaria alternata; [4])?
A: The value was 3-4 mm.

Q: What about the “Zone of Inhibition with 5 μg/ml of Furanone (mm)” value (Alternaria alternata; [5]) of the same compound?
A: The value was 35-37 mm.

Q: What about the “Zone of Inhibition with 10 μg/ml of Furanone (mm)” value (Alternaria alternata; [6]) of the same compound?
A: The value was 40-42 mm.

Q: And the “Zone of Inhibition with 10 ng/ml of Furanone (mm)” value (Aureobasidium pullulans; [2])?
A: Its value is 0 mm.

Q: What about the “Zone of Inhibition with 100 ng/ml of Furanone (mm)” value (Aureobasidium pullulans; [3]) of the same compound?
A: Its value is 0 mm.

Q: And the “Zone of Inhibition with 500 ng/ml of Furanone (mm)” value (Aureobasidium pullulans; [4])?
A: The value was 0 mm.

Q: What about the “Zone of Inhibition with 1 μg/ml of Furanone (mm)” value (Aureobasidium pullulans; [7]) of the same compound?
A: The value was 0 mm.

Q: What about the “Zone of Inhibition with 5 μg/ml of Furanone (mm)” value (Aureobasidium pullulans; [5]) of the same compound?
A: The value was 3-10 mm.

Q: What about the “Zone of Inhibition with 10 μg/ml of Furanone (mm)” value (Aureobasidium pullulans; [6]) of the same compound?
A: Its value is 15-17 mm.

Q: And the “Zone of Inhibition with 10 ng/ml of Furanone (mm)” value [1, 2]?
A: Its value is 0 mm.

Q: What about the “Zone of Inhibition with 100 ng/ml of Furanone (mm)” value [1, 3] of the same compound?
A: Its value is 9-10 mm.

Q: What about the “Zone of Inhibition with 500 ng/ml of Furanone (mm)” value [1, 4] of the same compound?
A: Its value is 20-21 mm.

Q: What about the “Zone of Inhibition with 1 μg/ml of Furanone (mm)” value [1, 7] of the same compound?
A: The value was 20-30 mm.

Q: What about the “Zone of Inhibition with 5 μg/ml of Furanone (mm)” value [1, 5] of the same compound?
A: Its value is 40-45 mm.

Q: And the “Zone of Inhibition with 10 μg/ml of Furanone (mm)” value [1, 6]?
A: The value was 42-56 mm.

Q: What about the “Zone of Inhibition with 10 ng/ml of Furanone (mm)” value (Penicillium digitatum; [2]) of the same compound?
A: Its value is 0 mm.

Q: And the “Zone of Inhibition with 100 ng/ml of Furanone (mm)” value (Penicillium digitatum; [3])?
A: The value was 0 mm.

Q: And the “Zone of Inhibition with 500 ng/ml of Furanone (mm)” value (Penicillium digitatum; [4])?
A: The value was 10-19 mm.

Q: What about the “Zone of Inhibition with 1 μg/ml of Furanone (mm)” value (Penicillium digitatum; [7]) of the same compound?
A: The value was 12-15 mm.

Q: And the “Zone of Inhibition with 10 μg/ml of Furanone (mm)” value (Penicillium digitatum; [6])?
A: Its value is 32-45 mm.

Q: What about the Solubility in water (Solubility in water) of the same compound?
A: The Solubility in water was “sparingly soluble in water”.
